From US9717746B2 (priority 2014, dated 2017)

Key:
[1] = test system: hippocampal slices
[2] = test system: hippocampal slices; remark: listed apart in the source

SMILES: CC[C@@H]1C(=O)OC[C@@H]1Cc1cncn1C [pilocarpine]
- neurotoxicity of the neurotoxicant (PS area) [1]: neurotoxicity of pilocarpine increases at high potassium concentration

SMILES: CCCCCCCCCCCCCCCCCCOCC(COP(=O)([O-])OCC[N+](C)(C)C)OC (racemic) [edelfosine, 1-O-octadecyl-2-O-methyl-rac-glycero-3-phosphocholine]
- effect of antidote per se on PS (without neurotoxicant) [2]: innocuous
